The source of these data is patent US10508085B2, “Compounds and methods for IDO and TDO modulation, and indications therefor” (Plexxikon Inc., priority 2016, dated 2019).

For orientation: IC50 means the point on the concentration scale where inhibition reaches its midpoint.

Where two headings read alike, the source gives them in different places. Where only a bound is given, the exact number is not on record here.

The target of assay [1] is T1, Human Indoleamine 2,3-dioxygenase (IDO) (Homo sapiens, UniProt P14902).
T1 construct: His tag (N); made in house; host or cells: E. coli
T1 sequence (P14902 whole entry): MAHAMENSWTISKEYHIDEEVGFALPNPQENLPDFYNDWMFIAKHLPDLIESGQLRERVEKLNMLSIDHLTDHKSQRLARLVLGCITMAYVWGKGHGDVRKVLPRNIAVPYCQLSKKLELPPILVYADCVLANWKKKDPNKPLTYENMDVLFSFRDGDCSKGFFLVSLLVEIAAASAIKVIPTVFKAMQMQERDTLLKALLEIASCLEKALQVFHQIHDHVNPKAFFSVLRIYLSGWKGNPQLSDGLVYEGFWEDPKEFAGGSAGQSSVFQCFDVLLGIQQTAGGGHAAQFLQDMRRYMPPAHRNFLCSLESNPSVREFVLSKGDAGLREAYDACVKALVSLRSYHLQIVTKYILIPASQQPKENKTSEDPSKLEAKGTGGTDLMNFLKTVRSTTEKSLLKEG
As to the kind of experiment: Human IDO enzymatic assay (kynurenine level). Type of assay: biochemical. To be noted: 6 nM IDO, 10 μM L-Trp; geometric mean; read-out: IDO1 GMean: IC50 (μM) (Biochemical Assay). Put shortly: (§1)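 IDO conditions: 6 nM His-IDO, 10 μM L-Trp, 5 μM methylene blue, 20 min, RT. TDO conditions: 1 nM His-TDO, 350 μM L-Trp, 0.4 μM methylene blue, 70 min, RT. Both used pH 6.5 phosphate plus ascorbate/catalase, TCA stop at 50° C, kynurenine readout, nonlinear-regression IC50.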

For assay [2], the target named is T2, Human Tryptophan 2,3-dioxygenase (TDO) (Homo sapiens, UniProt P48775).
T2 construct: His tag (N); made in house; host or cells: E. coli
T2 sequence (P48775 whole entry): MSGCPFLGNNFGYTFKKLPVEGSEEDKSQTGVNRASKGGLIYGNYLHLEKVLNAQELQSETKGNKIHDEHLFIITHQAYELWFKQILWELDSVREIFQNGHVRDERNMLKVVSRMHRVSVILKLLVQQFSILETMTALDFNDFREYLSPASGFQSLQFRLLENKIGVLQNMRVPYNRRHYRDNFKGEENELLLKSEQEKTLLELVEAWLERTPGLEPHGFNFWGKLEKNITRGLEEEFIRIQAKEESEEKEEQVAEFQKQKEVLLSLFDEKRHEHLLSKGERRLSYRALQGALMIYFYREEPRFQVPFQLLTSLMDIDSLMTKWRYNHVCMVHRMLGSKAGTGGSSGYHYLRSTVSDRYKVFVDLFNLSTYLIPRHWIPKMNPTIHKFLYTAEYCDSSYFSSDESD
As to the kind of experiment: Human TDO enzymatic assay (kynurenine level). The assay is classed as biochemical. As to conditions: 1 nM TDO, 350 μM L-Trp; geometric mean; read-out: TDO GMean: IC50 (μM) (Biochemical Assay). Put shortly:
as §1

Assay [3] has as its target T3, human TDO (TDO-expressing HEK293 cells) (Homo sapiens, UniProt P48775).
T3 construct: expressed in transfected cells
As to the kind of experiment: Cell based kynurenine assay, TDO-expressing HEK293 cell clones. To be noted: TDO-expressing HEK293 cells, geometric mean, read-out: HEK293 TDO Kynurenine GMean IC50 (μM) (Cellular Assay). An outline of the steps:
(§2)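 Steps: seed IDO1- or TDO-expressing HEK293 cells at 2.5×10^4 per well; add compound dilutions; incubate 24 h; transfer supernatant and determine kynurenine; derive IC50 via nonlinear regression of percent inhibition.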

Assay [4] concerns the target T4, human IDO (IDO1-expressing HEK293 cells) (Homo sapiens, UniProt P14902).
T4 construct: expressed in transfected cells
As to the kind of experiment: Cell based kynurenine assay, IDO1-expressing HEK293 cell clones. As to conditions: IDO1-expressing HEK293 cells, geometric mean, read-out: HEK293 IDO1 Kynurenine GMean IC50 (μM) (Cellular Assay). An outline of the steps: as §2

T3 sequence (P48775 whole entry): as above
T4 sequence (P14902 whole entry): as the sequence (P14902 whole entry) above

For `CC(C)(C1CCN(S(C)(=O)=O)CC1)C(O)c1c(F)ccc2cn[nH]c12` (stereo not shown) [Compound P-0284, 1-(6-fluoro-1H-indazol-7-yl)-2-methyl-2-(1-(methylsulfonyl)piperidin-4-yl)propan-1-ol], the half-inhibitory concentration (IC50) in assay [1], in assay [2], in assay [3] (24 hours incubation) and in assay [4] (24 hours incubation) was 0.0001 to 10 µM in each case.

`CC(C)(C1CCN(C(=O)CC2CC2)CC1)C(O)c1cc(Cl)cc2cn[nH]c12` (stereo not shown) [Compound P-0410, 1-(4-(1-(5-chloro-1H-indazol-7-yl)-1-hydroxy-2-methylpropan-2-yl)piperidin-1-yl)-2-cyclopropylethan-1-one]: the concentration for half-maximal inhibition (IC50) in assay [1], in assay [2], in assay [3] (24 hours) and in assay [4] (24 hours) was 0.0001 to 10 µM throughout.

For `[2H]C(O)(c1cc(Cl)cc2cn[nH]c12)C(C)(C)C1CCOCC1` (stereo not drawn) [Compound P-0244, 1-(5-chloro-1H-indazol-7-yl)-2-methyl-2-(tetrahydro-2H-pyran-4-yl)propan-1-d-1-ol], the IC50 in assay [1], in assay [2], in assay [3] (24 hours incubation) and in assay [4] (24 hours incubation) was 0.0001 to 10 µM throughout.

For `CC(C)(C1CCC1)C(O)c1c(F)c(Cl)c(F)c2cn[nH]c12` (stereo not shown) [Compound P-0251, 1-(5-chloro-4,6-difluoro-1H-indazol-7-yl)-2-cyclobutyl-2-methylpropan-1-ol], the IC50 in assay [1], in assay [2], in assay [3] (24 hours incubation) and in assay [4] (24 hours incubation) was 0.0001 to 10 µM in each case.

On to `CC(C)(C1CCCCC1)C(O)c1cc(Cl)cc2cncn12` (stereo not shown) [Compound P-0086, 1-(7-chloroimidazo[1,5-a]pyridin-5-yl)-2-cyclohexyl-2-methylpropan-1-ol], for which the IC50 in assay [1], in assay [2], in assay [3] (24 hours incubation) and in assay [4] (24 hours incubation) was 0.0001 to 10 µM in each case.

As to `O=C(Cc1ccc(Cl)nc1)N1CCC(C(F)(F)C(O)c2cc(Cl)cc3cn[nH]c23)CC1` (stereo not shown) [Compound P-0495, 1-(4-(2-(5-chloro-1H-indazol-7-yl)-1,1-difluoro-2-hydroxyethyl)piperidin-1-y1)-2-(6-chloropyridin-3-yl)ethan-1-one], the IC50 in assay [1], in assay [2], in assay [3] (24 hours) and in assay [4] (24 hours) was 0.0001 to 10 µM each time.

As for `CC(C)(C1CCN(C(=O)c2ccc(Cl)cn2)CC1)[C@H](O)c1cc(Cl)cc2cn[nH]c12` [Compound P-0548, (S)-(4-(1-(5-chloro-1H-indazol-7-yl)-1-hydroxy-2-methylpropan-2-yl)piperidin-1-yl)(5-chloropyridin-2-yl)methanone], the 50% inhibitory concentration (IC50) in assay [1], in assay [2], in assay [3] (24 hours) and in assay [4] (24 hours) was 0.0001 to 10 µM throughout.

With `CC(=O)N1CCC(C(F)(F)C(O)c2c3c(cc4cn[nH]c24)CC3)CC1` (stereo not drawn) [Compound P-0129, 1-(4-(2-(5,6-dihydro-1H-cyclobuta[f]indazol-7-yl)-1,1-difluoro-2-hydroxyethyl)piperidin-1-yl)ethan-l-one], the IC50 in assay [1], in assay [2], in assay [3] (24 hours incubation) and in assay [4] (24 hours incubation) was 0.0001 to 10 µM each time.

Turning to `CC1(C(O)c2c(Cl)c(Cl)cc3cn[nH]c23)CCCCC1` (stereo not shown) [Compound P-0287, (5,6-dichloro-1H-indazol-7-yl)(1-methylcyclohexyl)methanol], the IC50 in assay [1] is 0.0001 to 10 µM; in assay [2], 0.0001 to 10 µM; in assay [3] (24 hours incubation) it was above 10 µM; in assay [4] (24 hours incubation) it was 0.0001 to 10 µM.

On to `OC1(c2cc(Cl)cc3cn[nH]c23)CC2(CCC2)C1` [Compound P-0012, 2-(5-chloro-1H-indazol-7-yl)spiro[3.3]heptan-2-ol], for which the IC50 in assay [1] is 0.0001 to 10 µM; in assay [2], 0.0001 to 10 µM; in assay [3] (24 hours incubation), 0.0001 to 10 µM; in assay [4] (24 hours incubation) it was above 10 µM.

With `CN(C)c1ccc(NC(=O)N2CCC(C(C)(C)C(O)c3cc(Cl)cc4cn[nH]c34)CC2)cc1` (stereo not shown) [Compound P-0402, 4-(1-(5-chloro-1H-indazol-7-yl)-1-hydroxy-2-methylpropan-2-yl)-N-(4-(dimethylamino)phenyl)piperidine-1-carboxamide], the IC50 in assay [1], in assay [2], in assay [3] (24 hours incubation) and in assay [4] (24 hours incubation) was 0.0001 to 10 µM throughout.

For `CC(C)(C1CCN(C(=O)c2ccccc2F)CC1)C(O)c1cc(Cl)cc2cn[nH]c12` (stereo not shown) [Compound P-0364, (4-(1-(5-chloro-1H-indazol-7-yl)-1-hydroxy-2-methylpropan-2-yl)piperidin-1-yl)(2-fluorophenyl) methanone], the half-inhibitory concentration (IC50) in assay [1], in assay [2], in assay [3] (24 hours incubation) and in assay [4] (24 hours incubation) was 0.0001 to 10 µM throughout.

On to `OC1(c2cc(Cl)cc3cn[nH]c23)CC2(CSC2)C1` [Compound P-0040, 6-(5-chloro-1H-indazol-7-yl)-2-thiaspiro[3.3]heptan-6-ol], for which the IC50 in assay [1], in assay [2], in assay [3] (24 hours incubation) and in assay [4] (24 hours incubation) was 0.0001 to 10 µM in each case.

Consider `CC(C)(C1CCN(C(=O)Nc2cccs2)CC1)C(O)c1cc(Cl)cc2cn[nH]c12` (stereo not shown) [Compound P-0470, 4-(1-(5-chloro-1H-indazol-7-yl)-1-hydroxy-2-methylpropan-2-yl)-N-(thiophen-2-yl)piperidine-1-carboxamide], for which the 50% inhibitory concentration (IC50) in assay [1], in assay [2], in assay [3] (24 hours) and in assay [4] (24 hours) was 0.0001 to 10 µM each time.

`CC(C)NC(=O)N1CCC(C(C)(C)C(O)c2cc(Cl)cc3cn[nH]c23)CC1` (stereo not shown) [Compound P-0315, 4-(1-(5-chloro-1H-indazol-7-yl)-1-hydroxy-2-methylpropan-2-yl)-N-isopropylpiperidine-1-carboxamide]: the half-inhibitory concentration (IC50) in assay [1], in assay [2], in assay [3] (24 hours incubation) and in assay [4] (24 hours incubation) was 0.0001 to 10 µM each time.

Turning to `CC(C)CC(=O)N1CCC(C(F)(F)C(O)c2cc(Cl)cc3cn[nH]c23)CC1` (stereo not drawn) [Compound P-0148, 1-(4-(2-(5-chloro-1H-indazol-7-yl)-1,1-difluoro-2-hydroxyethyl)piperidin-l-yl)-3-methylbutan-1-one], the IC50 in assay [1], in assay [2], in assay [3] (24 hours incubation) and in assay [4] (24 hours incubation) was 0.0001 to 10 µM in each case.

On to `CC(C)NS(=O)(=O)N1CCC(C(F)(F)C(O)c2cc(Cl)cc3cn[nH]c23)CC1` (stereo not shown) [Compound P-0332, 4-(2-(5-chloro-1H-indazol-7-yl)-1,1-difluoro-2-hydroxyethyl)-N-isopropylpiperidine-1-sulfonamide], for which the 50% inhibitory concentration (IC50) in assay [1], in assay [2], in assay [3] (24 hours incubation) and in assay [4] (24 hours incubation) was 0.0001 to 10 µM each time.

In the case of `Cc1cc(C2(O)CC3(CCC3)C2)c2[nH]ncc2c1` [Compound P-0030, 2-(5-methyl-1H-indazol-7-yl)spiro[3.3]heptan-2-ol], the half-maximal inhibitory concentration (IC50) in assay [1] is 0.0001 to 10 µM; in assay [2], 0.0001 to 10 µM; in assay [3] (24 hours incubation), above 10 µM; in assay [4] (24 hours incubation), above 10 µM.

On to `CC(C)(C1CCN(C2CCCC2)CC1)C(O)c1cc(Cl)cc2cn[nH]c12` (stereo not shown) [Compound P-0320, 1-(5-chloro-1H-indazol-7-yl)-2-(1-cyclopentylpiperidin-4-yl)-2-methylpropan-1-ol], for which the half-maximal inhibitory concentration (IC50) in assay [1], in assay [2], in assay [3] (24 hours incubation) and in assay [4] (24 hours incubation) was 0.0001 to 10 µM in each case.

On to `CC1(C(O)c2c(Cl)ccc3cncn23)CCCCC1` (stereo not shown) [Compound P-0088, (6-chloroimidazo[1,5-a]pyridin-5-yl)(1-methylcyclohexyl)methanol], for which the half-maximal inhibitory concentration (IC50) in assay [1] is 0.0001 to 10 µM; in assay [2] it was 0.0001 to 10 µM; in assay [3] (24 hours incubation), above 10 µM; in assay [4] (24 hours incubation) it was 0.0001 to 10 µM.

For `O=C(Cc1ccc(Cl)cc1)N1CCC(C(F)(F)C(O)c2cc(Cl)cc3cn[nH]c23)CC1` (stereo not shown) [Compound P-0494, 1-(4-(2-(5-chloro-1H-indazol-7-yl)-1,1-difluoro-2-hydroxyethyl)piperidin-1-yl)-2-(4-chlorophenyl)ethan-1-one], the half-inhibitory concentration (IC50) in assay [1], in assay [2], in assay [3] (24 hours) and in assay [4] (24 hours) was 0.0001 to 10 µM each time.

In the case of `Cc1ccc(NC(=O)N2CCC(C(C)(C)C(O)c3cc(Cl)cc4cn[nH]c34)CC2)cc1` (stereo not shown) [Compound P-0397, 4-(1-(5-chloro-1H-indazol-7-yl)-1-hydroxy-2-methylpropan-2-yl)-N-(p-tolyl) piperidine-1-carboxamide], the half-inhibitory concentration (IC50) in assay [1], in assay [2], in assay [3] (24 hours incubation) and in assay [4] (24 hours incubation) was 0.0001 to 10 µM throughout.
